Tests used:
MRSA [1] = experiment: Check board broth micro-dilution assay, tedizolid phosphate with lysozyme; type: cell-based, Staphylococcus aureus; conditions: for FICI: tedizolid phosphate + lysozyme
Protocol: 2) Check board broth micro-dilution assays. According to standard two-fold dilution method [Sun. H et al., Nat. Commun. 11, 5263 (2020) tedizolid phosphate at different concentrations were added into fresh LB medium (or trypticase soy troth medium with 5% defibrinated horse blood) containing different concentrations of human lysozyme in 96-well plate. Then, 20 μl of 1.0×10^7 CFU/ml logarithmic cultures of MRSA or MRSE were added into each well of the plate and co-incubated overnight. Drug-free LB medium in the absence or presence of bacteria served as background control and growth control group, respectively. […] Thus, there would be a series of FICI values. In most of cases, the lowest one among these values was listed to reflect the best achieving degree of combination therapy. In terms of the lowest FICI, FICI≤0.5, 0.5<FICI<1 or FICI≥1, would indicate the combination has synergy, part synergy or non-synergy effects, respectively.

MRSA and MRSE biofilm = experiment: Biofilm crystal violet assay, tedizolid phosphate/lysozyme; type: cell-based; conditions: tedizolid phosphate + 0.5 mg/ml lysozyme
Protocol: 4) Biofilm assays. According to previously described method [Thappeta, K. R. et al., ACS Infect. Dis. 6, 1228-1237(2020); Merritt, J. H. et al., Curr. Protoc. Microbiol. Chapter 1, Unit 1B.1 (2005); O'Toole, G. A. et al., J, Vis. Exp. 47, 2437 (2011)], biofilm was assessed by using an adherence assay on 96-well tissue culture plates. Briefly, tedizolid phosphate at final concentration of 0.3 μg/ml was added into bacterial suspensions (1×10^6 CFU/ml, in LB medium) in the absence or presence of 0.5 mg/ml lysozyme. LB medium with or without bacteria served as positive or negative control group, respectively. After overnight incubation at 37° C., the bacterial suspension was removed, and well was gently washed twice with sterile PBS to remove exclusively non-adherent bacteria. The adherent biofilm was fixed by using 95% methanol at 60° C. for 15 minutes. Then, biofilm was stained with 1% Crystal violet (100 μl/well) at 37° C. for 15 minutes, Ater that, all wells were gently washed with PBS to remove redundant crystal violet. Finally, the dye was solubilized with […] of 95% ethanol per well at 37° C. for 3 minutes. The optical density at 590 nm of solution in each well was measured using a micro-plate reader. Herein, strong biofilm, weak biofilm and no biofilm were defined as “[…]”, “ODnegative control<ODsample<2ODnegative control” and “ODsample≤ODnegative control”. […]

MRSA ocular infection = experiment: Ocular infection model, tedizolid phosphate/lysozyme; type: in vivo, C57BL/6 mice
From the text: 20) Ocular infection model. According to the reported method [Zhang, Z et al., Curt. Protoc, mouse Bot 7, 55-63 (2017)], 40 C57BL/6, male mice ([…]) were used to evaluate the combination effect in the ocular infection model. Specifically, all mice were divided into 5 groups (4 infected groups and 1 uninfected group, 8 mice per group). Among than, 32 mice in infected groups were infected by slowly inoculating about 2.5×10^7 CFUs of mid-log phase MRSA into each ocular surface. To collect these mid-tog phase ARA, a colony of MRSA cultured in LB-agar plate was firstly picked up and inoculated into fresh LB medium for overnight incubation at 37° C. Then, the overnight culture was diluted (1:300) into fresh LB medium for continuous culture until bacterial OD600 was about 0.6. […] Next, 2.5 μl of bacterial suspensions were slowly inoculated into each ocular surface of anesthetized C57/BL6 mouse on the side of surgical bed. […] After that, they were repeated from the air-anesthetizing room and monitored until they were fully awake, followed by retuned to their cages. […] Then, according to the standard protocol^28, 3 μl of tear fluid was gradient-diluted at 10-fold in 96-well plat to figure out the initial number of viable bacteria in tear fluid according to quantitative grown colony after overnight culture. […]

MRSA [2] = experiment: Mutation frequency and prevention concentration analysis, tedizolid phosphate/lysozyme

Compound: Cn1nnc(-c2ccc(-c3ccc(N4C[C@H](COP(=O)(O)O)OC4=O)cc3F)cn2)n1 [tedizolid phosphate, Tedizolid Phosphate]
- FICI (MRSA [1]; absence of urea-cycle inhibitors): 0.015
- FICI (MRSA [1]; cultures of both inhibitors): up to 0.25
- FICI (MRSA [1]; presence of BB-Cl-Amidine or acetohydroxamic acid): 0.1
- fractional inhibitory concentration index (FICI) (MRSA [1]; tedizolid phosphate and lysozyme): < 0.023
- biofilm formation (absorbance at 590 nm), pre-biofilm stage (MRSA and MRSE biofilm): biofilm was eliminated
- expression level of SP-D in tear fluids (MRSA ocular infection; combination group compared with uninfected group): 1.5 fold
- bacterial load in both tear fluids and eyeball homogenates (MRSA ocular infection; combination therapy (0.125 mg/ml tedizolid phosphate + 100 mg/ml lysozyme)): 0.01 fold
- mutation frequencies (MRSA [2]; combination with lysozyme): 2×10^−9
- prevention concentrations of tedizolid phosphate (MRSA [2]; combination with lysozyme): ≤ 1 µg/mL
- mutation frequencies (MRSA [2]; without combination therapy): ≥ 5×10^−7
- prevention concentrations of tedizolid phosphate (MRSA [2]; without lysozyme): > 50 µg/mL
